The record followed here is ChEMBL document CHEMBL1221220, “Transport and signaling via the amino acid binding site of the yeast Gap1 amino acid transceptor” (Nat Chem Biol, 2009).

Each structure is given as a SMILES string. Non-standard residues stand in square brackets, D forms with d. Residues, ends and D or L forms follow the SMILES beside them. Hyp = O=C(O)[C@@H]1C[C@@H](O)CN1; Cit = NC(=O)NCCC[C@H](N)C(=O)O; pGlu = O=C1CC[C@@H](C(=O)O)N1; Abu = CC[C@H](N)C(=O)O; βAla = NCCC(=O)O; Sar = CNCC(=O)O
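Further: amino acid uptake through Gap1 in nitrogen-starved wild-type yeast cells, measured after 60 s and expressed relative to L-citrulline.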

In the experiment the target is T1, General amino-acid permease GAP1 (Saccharomyces cerevisiae) (UniProt P19145).
T1 sequence (whole entry): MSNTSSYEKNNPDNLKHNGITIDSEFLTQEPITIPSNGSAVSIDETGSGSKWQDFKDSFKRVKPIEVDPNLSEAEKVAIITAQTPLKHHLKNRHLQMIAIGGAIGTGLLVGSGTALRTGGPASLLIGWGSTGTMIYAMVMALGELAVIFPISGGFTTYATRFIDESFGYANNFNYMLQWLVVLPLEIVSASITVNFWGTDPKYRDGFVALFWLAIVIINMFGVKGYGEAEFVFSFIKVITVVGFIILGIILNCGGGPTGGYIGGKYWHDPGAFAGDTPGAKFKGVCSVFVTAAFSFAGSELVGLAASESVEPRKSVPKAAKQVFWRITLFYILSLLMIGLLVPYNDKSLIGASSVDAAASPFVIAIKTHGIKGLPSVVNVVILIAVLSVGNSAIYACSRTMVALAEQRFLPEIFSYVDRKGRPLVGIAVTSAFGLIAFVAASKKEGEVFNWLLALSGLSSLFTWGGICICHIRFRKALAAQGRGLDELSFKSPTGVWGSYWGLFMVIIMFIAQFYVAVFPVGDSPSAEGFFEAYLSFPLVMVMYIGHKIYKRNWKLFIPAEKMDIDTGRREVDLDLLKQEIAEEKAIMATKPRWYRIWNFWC
The note with it: sigma1278b, at 5 mM.
Description: Inhibition of nitrogen-starved wild type sigma1278b yeast Gap1-mediated amino acid uptake at 5 mM after 60 secs relative to L-citrulline
A word on the inhibition: it is the percentage by which the read-out fell short of the control. A low value points to a response near the control. Consider `N=C(N)NCCC[C@H](NC(=O)[C@@H](N)Cc1ccccc1)C(=O)O` (H-Phe-Arg-OH), for which the inhibition was < 15%.
In the case of `N[C@H](CO)Cc1c[nH]c2ccccc12`, the inhibition was < 15%.
The compound `CC(NC(=O)CN)C(=O)O` (racemic) displayed an inhibition of 15%.
Turning to `CC[C@H](N)C(=O)N[C@@H](CC(C)C)C(=O)O` (H-[Abu]-Leu-OH), the inhibition is < 15%.
In the case of `CC(C)C[C@H](N)C(=O)N[C@H](C(=O)O)C(C)C` (H-Leu-Val-OH) it was < 15%.
Turning to `CC[C@H](C)[C@H](N)C(=O)N[C@@H](CO)C(=O)O` (H-Ile-Ser-OH), the inhibition is < 15%.
In the case of `C[C@H](N)C(=O)N[C@H](CCC(=O)O)C(N)=O` (H-Ala-[dE]-NH2) it was < 15%; in that of `CC(C)(C)OC(=O)N[C@@H](CCCCN)C(=O)O`, < 15%.
In the case of `C[C@@H](O)[C@@H](NC(=O)CN)C(=O)O` it was < 15%; in that of `C[C@H](N)C(=O)N[C@@H](Cc1c[nH]c2ccccc12)C(=O)O` (H-Ala-Trp-OH), > 30%; in that of `CC(C)C[C@H](N)C(=O)N[C@@H](CC(N)=O)C(=O)O` (H-Leu-Asn-OH), < 15%.
Under `C[C@H](NC(=O)[C@@H](N)Cc1ccc(O)cc1)C(=O)N[C@@H](CCCNC(=N)N)C(=O)O` (H-Tyr-Ala-Arg-OH) stands < 15%; under `CC(C)C[C@H](NC(=O)[C@@H](N)CC(C)C)C(=O)N[C@@H](CC(=O)O)C(=O)O` (H-Leu-Leu-Asp-OH), > 30%.
In the case of `N[C@@H](CO)C(=O)NCC(=O)O` (H-Ser-Gly-OH), the inhibition was < 15%.
Take `CC(C)C[C@@H](N)CO`: the inhibition was < 15%.
Consider `CSCC[C@H](N)C(=O)N[C@@H](CCC(=O)O)C(=O)O` (H-Met-Glu-OH), for which the inhibition was < 15%.
Under `N[C@@H](CO)C(=O)N[C@@H](CO)C(=O)N[C@@H](CO)C(=O)O` (H-Ser-Ser-Ser-OH) stands < 15%.
Regarding `CSCC[C@H](NC(=O)[C@@H](N)Cc1ccccc1)C(=O)O` (H-Phe-Met-OH), the inhibition is < 15%.
As for `CSCC[C@H](NC(=O)[C@@H](N)Cc1ccc(O)cc1)C(=O)O` (H-Tyr-Met-OH), the inhibition was < 15%.
In the case of `CSCC[C@H](NC(=O)[C@H](CC(C)C)NC(=O)CN)C(N)=O` (H-Gly-Leu-Met-NH2) it was < 15%; in that of `C[C@H](NC(=O)[C@H](Cc1cnc[nH]1)NC(=O)CN)C(=O)O` (H-Gly-His-Ala-OH), < 15%.
Under `O=C(O)[C@@H]1C=CCN1` stands < 15%.
Under `CC(C)C[C@H](N)C(=O)N[C@@H](C)C(=O)O` (H-Leu-Ala-OH) stands < 15%; under `CC(C)(C)OC(=O)N[C@@H](Cc1cnc[nH]1)C(=O)O`, < 15%; under `C[C@H](N)C(=O)OC(C)(C)C`, < 15%.
Consider `N[C@@H](Cc1ccc(O)cc1)C(=O)NCC(=O)NCC(=O)O` (H-Tyr-Gly-Gly-OH), for which the inhibition was < 15%.
In the case of `O=C(N[C@@H](CO)C(=O)O)OCc1ccccc1` it was < 15%; in that of `CSCC[C@H](N)C(=O)N[C@@H](C)C(=O)O` (H-Met-Ala-OH), < 15%; in that of `CSCC[C@H](N)C(=O)NCC(=O)N[C@@H](CC(=O)O)C(=O)O` (H-Met-Gly-Asp-OH), < 15%.
On to `N[C@@H](Cc1ccccc1)C(=O)NCC(=O)O` (H-Phe-Gly-OH), for which the inhibition was < 15%.
Under `CC(C)(C)OC(=O)N[C@@H](Cc1ccccc1)C(=O)O` stands > 30%.
In the case of `N[C@@H](CO)C(=O)NCC(=O)NCC(=O)O` (H-Ser-Gly-Gly-OH) it was < 15%; in that of `CC(C)[C@H](N)C(=O)N[C@@H](CO)C(=O)O` (H-Val-Ser-OH), < 15%.
Under `CC[C@H](C)[C@H](N)C(=O)N[C@@H](C)C(=O)N1CCC[C@H]1C(=O)O` (H-Ile-Ala-Pro-OH) stands 15%.
With `NCC(=O)N[C@@H](Cc1ccccc1)C(=O)O`, the inhibition was > 30%.
Under `CSCC[C@H](NC(=O)[C@@H](N)CCSC)C(=O)O` (H-Met-Met-OH) stands < 15%; under `NCCCC[C@H](N)C(=O)N[C@@H](Cc1c[nH]c2ccccc12)C(=O)O` (H-Lys-Trp-OH), < 15%; under `CSCC[C@H](N)C(=O)NCC(=O)O` (H-Met-Gly-OH), < 15%.
Under `NCC(=O)NCC(=O)NCCC(=O)O` (H-Gly-Gly-[βAla]-OH) stands < 15%.
Under `C[C@H](N)C(=O)N[C@@H](Cc1cnc[nH]1)C(=O)O` (H-Ala-His-OH) stands > 30%.
With `CSCC[C@H](NC(=O)[C@@H](N)[C@@H](C)O)C(=O)O` (H-Thr-Met-OH), the inhibition was < 15%.
Under `C[C@H](NC=O)C(=O)O` stands > 30%.
Under `CC(C)C(NC(=O)CN)C(=O)O` (stereo in doubt) stands < 15%; under `CC(C)C[C@@H](NC(=O)CN)C(=O)O`, < 15%; under `N[C@@H](Cc1c[nH]cn1)C(=O)N[C@@H](Cc1c[nH]cn1)C(=O)O`, 15%.
On to `NCC(=O)NCCC(=O)O`, for which the inhibition was < 15%.
As for `NC(=O)[C@@H]1CCCN1`, the inhibition was < 15%.
For the compound `CC(C)C[C@@H](NC(=O)CNC(=O)CN)C(=O)O`, the inhibition is < 15%.
In the case of `CC(C)(C)OC(=O)[C@@H](N)CSSC[C@H](N)C(=O)OC(C)(C)C` it was < 15%; in that of `N[C@@H](Cc1cnc[nH]1)C(=O)NCC(=O)N[C@@H](Cc1cnc[nH]1)C(=O)O` (H-His-Gly-His-OH), < 15%.
In the case of `N=C(N)NCCC[C@H](NC(=O)[C@@H](N)CC(=O)O)C(=O)O` (H-Asp-Arg-OH) it was < 15%; in that of `CC(C)C[C@H](NC(=O)[C@@H]1C[C@@H](O)CN1)C(=O)O` (H-[Hyp]-Leu-OH), < 15%; in that of `CC(C)[C@H](NC(=O)[C@@H](N)CCCNC(N)=O)C(=O)O` (H-[Cit]-Val-OH), < 15%.
In the case of `CC(=O)N[C@@H](CC[S+](C)[O-])C(=O)O` (some centres undefined) it was < 15%; in that of `NCCCC(=O)N[C@@H](Cc1cnc[nH]1)C(=O)O`, < 15%; in that of `CCCC[C@H](NC(=O)OC(C)(C)C)C(=O)O`, < 15%.
Regarding `CN(CC(=O)O)C(=O)CN` (H-Gly-[Sar]-OH), the inhibition was < 15%.
Under `CC(C)(C)OC(=O)NC1(C(=O)O)CCCC1` stands < 15%; under `NCC(=O)NCC(=O)NCC(=O)O`, < 15%; under `COC(=O)[C@H](CO)NC(=O)OC(C)(C)C`, < 15%.
As for `N[C@@H](CO)Cc1c[nH]c2ccccc12`, the inhibition was < 15%.
For the compound `NC(=O)CC[C@H](NC(=O)[C@@H](N)CO)C(=O)O` (H-Ser-Gln-OH), the inhibition was < 15%.
Under `CCCC(NC(=O)C(C)N)C(=O)O` (racemic) stands < 15%.
In the case of `CCOC(=O)[C@@H](N)Cc1c[nH]c2ccccc12` it was < 15%.
In the case of `CC(C)C[C@H](N)C(=O)N1C[C@H](O)C[C@H]1C(=O)O` (H-Leu-[Hyp]-OH), the inhibition was < 15%.
In the case of `NCC(=O)NCC(N)=O` it was < 15%.
With `N[C@@H](Cc1ccc(O)cc1)C(=O)N[C@@H](CCC(=O)O)C(=O)O` (H-Tyr-Glu-OH), the inhibition was < 15%.
As to `CSCC[C@H](N)C(=O)N[C@@H](CC(=O)O)C(=O)O` (H-Met-Asp-OH), the inhibition is < 15%.
Under `CC[C@H](C)[C@H](NC(=O)OC(C)(C)C)C(=O)O` stands < 15%; under `CC(C)C[C@H](NC(=O)[C@@H](N)CC(C)C)C(=O)N[C@H](C(=O)O)C(C)C` (H-Leu-Leu-Val-OH), < 15%.
Under `CSCC[C@H](NC(=O)CN)C(=O)N[C@@H](CC(C)C)C(=O)O` (H-Gly-Met-Leu-OH) stands < 15%; under `CC(C)C[C@@H](N)C(=O)NCC(=O)O` (H-[dL]-Gly-OH), < 15%; under `CCCC(NC(=O)CN)C(=O)O` (racemic), 15%.
Under `O=C(O)CNC(=O)[C@H](Cc1cnc[nH]1)NC(=O)[C@@H]1CCC(=O)N1` ([pGlu]-His-Gly-OH) stands < 15%; under `CC(C)CC(N)C(=O)NC(CC(C)C)C(=O)O` (racemic), > 30%.
Regarding `CC(C)[C@H](N)C(N)=O`, the inhibition was < 15%.
In the case of `N[C@@H](CCC(=O)O)C(=O)N[C@@H](Cc1ccc(O)cc1)C(=O)N[C@@H](CCC(=O)O)C(=O)O` (H-Glu-Tyr-Glu-OH) it was 15%.
In the case of `N[C@@H](CCC(=O)O)C(=O)N[C@@H](Cc1c[nH]c2ccccc12)C(=O)N[C@@H](CCC(=O)O)C(=O)O` (H-Glu-Trp-Glu-OH) it was < 15%; in that of `NCCCC[C@H](NC(=O)[C@@H](N)CCCCN)C(=O)O`, < 15%.
In the case of `NCC(=O)N[C@@H](CC(N)=O)C(=O)O` (H-Gly-Asn-OH) it was < 15%; in that of `CSCC[C@H](NC(=O)[C@H](Cc1ccc(O)cc1)NC(=O)[C@@H](N)CC(=O)O)C(=O)O` (H-Asp-Tyr-Met-OH), < 15%.
Take `C[C@@H](CC(=O)O)NC(=O)OC(C)(C)C`: the inhibition is < 15%.
In the case of `CC[C@H](C)[C@H](N)C(N)=O` it was < 15%; in that of `COC(=O)CC[C@H](NC(=O)OC(C)(C)C)C(=O)O`, < 15%.
